In brackets after ≈: the same amount, converted by molar mass.
Tests used:
[1] = tested on: Staphylococcus aureus No. 50774; assay: MIC by agar dilution method; format: cell-based; conditions: Gram-positive bacteria, read-out: minimum inhibitory concentration (MIC)
[2] = tested on: Streptococcus faecalis P-2473; assay: MIC by agar dilution method; format: cell-based; conditions: Enterococcus faecalis, P2473, read-out: minimum inhibitory concentration (MIC)
[3] = tested on: Streptococcus pyogenes A65; assay: MIC by agar dilution method; format: cell-based; conditions: read-out: minimum inhibitory concentration (MIC)
[4] = tested on: Corynebacterium pyogenes C-21; assay: MIC by agar dilution method; format: cell-based; conditions: Trueperella pyogenes, C21, read-out: minimum inhibitory concentration (MIC)
[5] = tested on: Escherichia coli NIHJ JC-2; assay: MIC by agar dilution method; format: cell-based; conditions: NIHJJC2, read-out: minimum inhibitory concentration (MIC)
[6] = tested on: Escherichia coli P-5101; assay: MIC by agar dilution method; format: cell-based; conditions: P5101, read-out: minimum inhibitory concentration (MIC)
[7] = tested on: Escherichia coli P-140a; assay: MIC by agar dilution method; format: cell-based; conditions: P140A, read-out: minimum inhibitory concentration (MIC)
[8] = tested on: Salmonella typhimurium S-9; assay: MIC by agar dilution method; format: cell-based; conditions: Salmonella enterica, read-out: minimum inhibitory concentration (MIC)
[9] = tested on: Salmonella enteritidis No. 1891; assay: MIC by agar dilution method; format: cell-based; conditions: Salmonella enterica, read-out: minimum inhibitory concentration (MIC)
[10] = tested on: Enterobacter cloacae P-2540; assay: MIC by agar dilution method; format: cell-based; conditions: P2540, read-out: minimum inhibitory concentration (MIC)
[11] = tested on: Pseudomonas aeruginosa Tsuchijima; assay: MIC by agar dilution method; format: cell-based; conditions: read-out: minimum inhibitory concentration (MIC)
[12] = tested on: Pseudomonas aeruginosa No. 12; assay: MIC by agar dilution method; format: cell-based; conditions: read-out: minimum inhibitory concentration (MIC)
[13] = tested on: Klebsiella pneumoniae No. 13; assay: MIC by agar dilution method; format: cell-based; conditions: read-out: minimum inhibitory concentration (MIC)
Protocol: (§1) The minimum inhibitory concentrations (MIC: μg/ml) of the following compounds were measured by the agar dilution method according to the procedure described in Chemotherapy, Vol. 22, No. 16, page 1126 (1974).

[14] = tested on: Proteus mirabilis P-2381; assay: MIC by agar dilution method; format: cell-based; conditions: P2381, read-out: minimum inhibitory concentration (MIC)
Protocol: as §1

[15] = tested on: Proteus morganii Kono; assay: MIC by agar dilution method; format: cell-based; conditions: Morganella morganii, read-out: minimum inhibitory concentration (MIC)
Protocol: as §1

[16] = tested on: Serratia marcescens IFO 3736; assay: MIC by agar dilution method; format: cell-based; conditions: IFO3736, read-out: minimum inhibitory concentration (MIC)
Protocol: as §1

[17] = tested on: Shigella flexneri 2a; assay: MIC by agar dilution method; format: cell-based; conditions: read-out: minimum inhibitory concentration (MIC)
Protocol: as §1

[18] = tested on: Shigella flexneri 4a P-330; assay: MIC by agar dilution method; format: cell-based; conditions: 4AP330, read-out: minimum inhibitory concentration (MIC)
Protocol: as §1

[19] = tested on: Staphylococcus aureus 209P JC-1; assay: MIC by agar dilution method; format: cell-based; conditions: Gram-positive bacteria, read-out: minimum inhibitory concentration (MIC)
Protocol: as §1

[20] = tested on: Staphylococcus aureus No. 50774; assay: In vivo therapeutic efficacy against systemic infections in mice; conditions: NO.50774, 336 h, po, twice, about 5 minutes and 6 hours after intravenous infection, male ddY mice, observed 14 days, read-out: median effective dose (ED50)
From the text: (§2) Compound 1 of this invention obtained by the procedure described in Example 1 and compounds A and B were each suspended in a 0.2% aqueous solution of sodium carboxymethylcellulose. Each of the solutions was orally administered to mice infected with each of the test organisms under the conditions described below, and the median effective doses (ED50; mg/kg) obtained are shown in Table II. Male mice (ddY) weighing about 20 g (1) Staphylococcus aureus No. 50774: Intravenous infection with about 5×10^8 cells per mouse suspended in saline. […] Exp. Path. Pharm., 162, 480 (1931)].

[21] = tested on: Streptococcus pyogenes A65; assay: as above; conditions: po, twice, about 5 minutes and 6 hours after intraperitoneal infection, male ddY mice, read-out: median effective dose (ED50)
From the text: as §2, with “(2) Streptococcus pyogenes […] Intraperitoneal” for “(1) Staphylococcus aureus No. 50774: Intravenous”, “3×10^7” for “5×10^8”, “brain-heart infusion broth.” for “saline.”

[22] = tested on: Escherichia coli P-5101; assay: as above; conditions: P5101, 168 h, po, twice, about 5 minutes and 6 hours after intraperitoneal infection, male ddY mice, observed 7 days, read-out: median effective dose (ED50)
From the text: as §2, with “(3) Escherichia coli P-5101: Intraperitoneal” for “(1) Staphylococcus aureus No. 50774: Intravenous”, “9×10^6” for “5×10^8”, “trypto-soy broth with 4% mucin.” for “saline.”

[23] = tested on: Pseudomonas aeruginosa No. 12; assay: as above; conditions: po, twice, about 5 minutes and 6 hours after intraperitoneal infection, male ddY mice, read-out: median effective dose (ED50)
From the text: as §2, with “(4) Pseudomonas aeruginosa” for “(1) Staphylococcus aureus”, “12: Intraperitoneal” for “50774: Intravenous”, “4×10^3” for “5×10^8”, “trypto-soy broth with 4% mucin.” for “saline.”

[24] = Acute oral toxicity in mice; conditions: mouse, in vivo, male ddY mice, deaths counted after 7 days, Behrens-Kaerber method, read-out: median lethal dose (LD50)
Protocol: A suspension containing each of compound 1 of the invention and compound A in various concentrations was orally given to male mice (ddY) at a volume of 0.1 ml per 10 g of body weight.

| SMILES | MIC [1] | MIC [2] | MIC [3] | MIC [4] | MIC [5] | MIC [6] | MIC [7] | MIC [8] | MIC [9] | MIC [10] | MIC [11] | MIC [12] | MIC [13] | MIC [14] | MIC [15] | MIC [16] | MIC [17] | MIC [18] | MIC [19] | ED50 [21] | other results |
| --- | --- | --- | --- | --- | --- | --- | --- | --- | --- | --- | --- | --- | --- | --- | --- | --- | --- | --- | --- | --- | --- |
| CN1CCN(c2nc3c(cc2F)c(=O)c(C(=O)O)cn3CCF)CC1 [Compound 1, 6-Fluoro-1-(2-fluoroethyl)-1,4-dihydro-7-(4-methyl-1-piperazinyl)-4-oxo-1,8-naphthyridine-3-carboxylic acid] | 0.39 µg/mL (≈ 1.11 µM) | 12.5 µg/mL (≈ 35.5 µM) | 12.5 µg/mL (≈ 35.5 µM) | 6.25 µg/mL (≈ 17.7 µM) | 0.2 µg/mL (≈ 0.568 µM) | 0.1 µg/mL (≈ 0.284 µM) | 0.1 µg/mL (≈ 0.284 µM) | 0.2 µg/mL (≈ 0.568 µM) | 0.1 µg/mL (≈ 0.284 µM) | 0.2 µg/mL (≈ 0.568 µM) | 3.13 µg/mL (≈ 8.88 µM) | 1.56 µg/mL (≈ 4.43 µM) | 0.39 µg/mL (≈ 1.11 µM) | 0.78 µg/mL (≈ 2.21 µM) | 0.39 µg/mL (≈ 1.11 µM) | 1.56 µg/mL (≈ 4.43 µM) | 0.39 µg/mL (≈ 1.11 µM) | 0.1 µg/mL (≈ 0.284 µM) | 0.78 µg/mL (≈ 2.21 µM) | 14.9 mg/kg | ED50 [20]: 1.4 mg/kg; ED50 [22]: 0.52 mg/kg; ED50 [23]: 4.2 mg/kg; LD50 at 168 h [24]: > 1800 mg/kg |
| CCn1cc(C(=O)O)c(=O)c2cc(F)c(N3CCN(C)CC3)nc21 [Compound A, 1-Ethyl-6-fluoro-1,4-dihydro-7-(4-methyl-1-piperazinyl)-4-oxo-1,8-naphthyridine-3-carboxylic acid] |  |  | 6.25 µg/mL (≈ 18.7 µM) | 6.25 µg/mL (≈ 18.7 µM) | 0.39 µg/mL (≈ 1.17 µM) |  | 0.39 µg/mL (≈ 1.17 µM) |  | 0.1 µg/mL (≈ 0.299 µM) |  |  |  |  | 3.13 µg/mL (≈ 9.36 µM) | 0.78 µg/mL (≈ 2.33 µM) | 1.56 µg/mL (≈ 4.67 µM) | 0.39 µg/mL (≈ 1.17 µM) | 0.78 µg/mL (≈ 2.33 µM) |  | > 50 mg/kg |  |
| O=C(O)c1cn(CCF)c2nc(N3CCNCC3)c(F)cc2c1=O [Compound B, 6-Fluoro-1-(2-fluoroethyl)-1,4-dihydro-4-oxo-7-(1-piperazinyl)-1,8-naphthyridine-3-carboxylic acid] | 1.56 µg/mL (≈ 4.61 µM) | 12.5 µg/mL (≈ 36.9 µM) | 12.5 µg/mL (≈ 36.9 µM) | 1.56 µg/mL (≈ 4.61 µM) | 0.2 µg/mL (≈ 0.591 µM) | 0.1 µg/mL (≈ 0.296 µM) | 0.1 µg/mL (≈ 0.296 µM) | 0.1 µg/mL (≈ 0.296 µM) | 0.1 µg/mL (≈ 0.296 µM) | 0.1 µg/mL (≈ 0.296 µM) | 0.78 µg/mL (≈ 2.31 µM) | 0.78 µg/mL (≈ 2.31 µM) | 0.78 µg/mL (≈ 2.31 µM) | 0.39 µg/mL (≈ 1.15 µM) | 0.2 µg/mL (≈ 0.591 µM) | 0.39 µg/mL (≈ 1.15 µM) | 0.2 µg/mL (≈ 0.591 µM) | 0.1 µg/mL (≈ 0.296 µM) | 0.39 µg/mL (≈ 1.15 µM) | 50 mg/kg | ED50 [20]: 11.5 mg/kg; ED50 [22]: 3 mg/kg; ED50 [23]: 27.2 mg/kg |

From patent US4496566A, “Naphthyridine derivatives” (Dainippon Pharmaceutical Co., Ltd., priority 1980, dated 1985)
